In US5756537A (Parkash S. Gill, M.D., Inc., priority 1996, dated 1998):
Values after ≈ are worked out from the molar mass of the structure shown. “Also recorded” adds a separate entry of the source. Like-named read-outs stand apart in the source and are kept apart here.

Experiments:
[1] = test system: ovarian and breast cancer; conditions: cited from earlier work
Kaposi's sarcoma [2] = experiment: Example 4: person with KS; type: in vivo, human
Source text: Due to very extensive disease, a representative area of tumor was monitored.

Kaposi's sarcoma [3] = conditions: […]^2 to 175 mg/m^2 over three hours, every 21 days; cited from earlier work
[4] = test system: AIDS-KS spindle cell lines, KS Y-1 P105; experiment: Cell proliferation assay (cell counting, day 5 or 6); type: cell-based
Method: FIG. 1. […] At that time surviving cells were assayed by cell counting.
AIDS-KS spindle cell lines were seeded at a density of 1.0×10^4 cells/well in a 24-well plate in KS medium. […] The cell counts were performed on day 5 or 6 using a Coulter Particulate Counter (Hialeah, Fla.).

AIDS-KS [5] = test system: AIDS-KS
Kaposi's sarcoma [6] = experiment: Example 5: pilot study of ten patients; type: in vivo, human; conditions: 100 mg/m^2 over 3 hr every 2 weeks
Source text: Seven of these ten patients had previously been treated with one or more previous regimens cytotoxic chemotherapy regimens. All were severely immunodeficient with history of opportunistic infection in six, advanced KS with numerous cutaneous KS lesions, involvement of visceral disease (which is generally fatal) in five.

bone marrow suppression [7] = conditions: human, in vivo
Kaposi's sarcoma [8] = experiment: Paclitaxel peak levels, AUC and relation to effect and side effects in KS patients
Method: (§1) This area is calculated using the equation: [formula] where λi is the exponent of the i-th exponential term, and Ci is the initial concentration of the i-th component of the curve. Curve fitting with this model yields the parameters Ci, C2, C3 λ1, λ2 and λ3. The half-lives (t1/2 s) are calculated from the equations t1/2 (α)=0.693/λ1, t1/2 (β)=0.693/λ2 and t1/2 (γ)=0.693/λ3. The total area under the curve (AUC0→.infin.)) is calculated using the linear trapezoidal method with extrapolation of the terminal phase to infinity (Clast /λ3), where Clast is the last measured concentration.
(§2) Typically, maintenance therapy is maintained for a minimum of 3-5 cycles.

[9] = as above; conditions: human, blood, iv
Method: as §1, §2

Kaposi's sarcoma [10] = experiment: Example 3: HIV-negative person with KS; type: in vivo, human
Source text: Patient, a very fragile person presented with KS. […] Other medical problems included hypertension, cardiac arrhythmia, congestive heart failure, and hypothyroidism.
Prior therapy included radiation therapy. The radiated areas included both feet and eye lids. […] Cytotoxic chemotherapy was given with combination chemotherapy consisting of bleomycin, vincristine and adriamycin.
Premedication included dexamethasone, diphenhydramine, and cimetidine.

AIDS-KS [11] = experiment: Phase II trial, strata 2 (no prior systemic chemotherapy); type: in vivo, human; conditions: 100 mg/m^2 iv every 2 weeks
Source text: Strata 2 of the study consisted of 20 patients with advanced AIDS-KS who had not received any prior systemic chemotherapy. The demographic characteristics and the results of treatment are provided below (Table 4-6).

bone marrow suppression [12] = experiment: G-CSF use in the clinical trial patients
Kaposi's sarcoma [13] = experiment: Clinical results with paclitaxel in KS, overall
Method: The mode or route of administration can be parenteral: e.g., intravenous; intraperitoneal; subcutaneous; oral; or topical for cutaneous tumors.
All patients had advanced KS defined by more than 25 cutaneous lesions, or presence of visceral disease, or lymphedema. Other eligibility criteria included adequate hepatic, renal, and bone marrow function defined as a bilirubin<2.0 mg/dl, GOT<x upper limit of normal, creatinine<2.1 mg/dl, granulocytes>1000/mm^3, and platelets>75,000/mm^3. Patients could not have had prior therapy for their KS within the last 2 weeks. The dosage and schedule was 100 mg/m^2 intravenously every 2 weeks.

KS Y-1 cells = experiment: In vivo KS tumor model in nude mice; set-up: species or system Balbc/nu mouse; conditions: 10 mg/kg intraperitoneally, days 1, 5 and 9; measured day 14 and 21
Method: FIG. 2. […] Tumor size was measured on days 14 and 21.
KS cell lines that propagate in the immunodeficient mouse were treated with paclitaxel. 1.0×10^7 cells were implanted subcutaneously in each Balbc/nu (Charles River) mouse.

[14] = 33 evaluable, 100 mg/m^2 iv every 2 weeks
[15] = 75 mg/m^2 every two weeks, three hour infusion
[16] = of patients with no G-CSF prior to paclitaxel

Compound: CC(=O)O[C@H]1C(=O)[C@@]2(C)[C@H]([C@H](OC(=O)c3ccccc3)[C@]3(O)C[C@H](OC(=O)[C@H](O)[C@@H](NC(=O)c4ccccc4)c4ccccc4)C(C)=C1C3(C)C)[C@]1(OC(C)=O)CO[C@@H]1C[C@@H]2O [paclitaxel]
- dose generally required to obtain responses ([1]; 3-96 hour infusion, every 3-4 weeks): 175-200 mg/m^2
- threshold peak level necessary for pharmaceutical effect ([1]; Wiernak, et al.): 0.1 µM
- KS lesions three months after initiation of the lower dose (Kaposi's sarcoma [2]; 35 mg/m^2 every 2 weeks): completely flat (Clinical Complete Remission)
- tolerability (Kaposi's sarcoma [2]; 35 mg/m^2 every 2 weeks): well tolerated, and their hair grew back while on therapy
- hair loss (Kaposi's sarcoma [2]; 75 mg/m^2): severe hair loss
- response to the first dose (Kaposi's sarcoma [2]; 75 mg/m^2): rapid response
- lesion count on the left forearm (Kaposi's sarcoma [2]; after single dose of 75 mg/m^2, 32 lesions prior to paclitaxel): 12 lesions
- raised lesions on the left forearm (Kaposi's sarcoma [2]; after single dose of 75 mg/m^2, all 32 raised prior to therapy): two
- myelosuppression (Kaposi's sarcoma [3]): increased incidents of myelosuppression
- IC50 ([4]; P1(0.5), KS Y-1 P105, treated day 1 and 3, counted day 5 or 6): 2 to 3 ng/mL (≈ 2.34 to 3.51 nM)
- sensitivity of KS cells to paclitaxel in vitro ([4]; in vitro): as sensitive to paclitaxel as human ovarian cell lines; also recorded: unusual sensitivity
- Cycles to response, range (AIDS-KS [5]; 100 mg/m^2 iv every 2 weeks): 3-9 cycles
- Median cycles to response (AIDS-KS [5]; 100 mg/m^2 iv every 2 weeks): 5 cycles
- median duration of response (AIDS-KS [5]; 100 mg/m^2 iv every 2 weeks): ≥ 5 months
- Complete response (count) (AIDS-KS [5]; [14]): 0
- Minimal response/stable disease (count) (AIDS-KS [5]; [14]): 12
- Minimal response/stable disease (percent) (AIDS-KS [5]; [14]): 34%
- Partial response (count) (AIDS-KS [5]; [14]): 23
- Partial response (percent) (AIDS-KS [5]; [14]): 66%
- Progression (count) (AIDS-KS [5]; [14]): 0
- Median Survival (AIDS-KS [5]; not reached): > 6 months
- activity in patients with prior systemic chemotherapy (AIDS-KS [5]; preliminary results): confirmed
- patients with partial or complete response (Kaposi's sarcoma [6]): five of the ten
- responses in patients who had previously failed chemotherapy (Kaposi's sarcoma [6]): Responses were observed
- responses in patients with otherwise fatal pulmonary disease (Kaposi's sarcoma [6]): Responses were also observed
- tolerability (Kaposi's sarcoma [6]): well tolerated
- tumor associated edema (Kaposi's sarcoma [6]): resolution of tumor associated edema was observed
- Any G-CSF use (percent) (bone marrow suppression [7]): 69%
- Never required G-CSF (percent) (bone marrow suppression [7]): 48%
- patients who did not require G-CSF (bone marrow suppression [7]): approximately 50%
- length of time peak levels are achieved (Kaposi's sarcoma [8]; 50-100 mg/m^2, three hour bolus, would be expected): less than 15 hours
- myelosuppression (Kaposi's sarcoma [8]; AUC 1-4 μM/hour, three hour bolus of 50-100 mg/m^2 every 14 days): not observed
- unwanted hematological and non-hematological side effects (Kaposi's sarcoma [8]; peak levels maintained at 15 hours or less): absent
- neutropenia and other side effects (Kaposi's sarcoma [8]; threshold level 0.1-1 μM for shorter periods, AUC 1-4 μM/hour): reduce neutropenia and other side effects
- Cmax [9]: 100 to 1000 nM
- disease status after one cycle (Kaposi's sarcoma [10]; 35 mg/m^2, after relapse): stable
- number of doses to complete tumor resolution (Kaposi's sarcoma [10]; 75 mg/m^2 every two weeks): five
- period to complete tumor resolution (Kaposi's sarcoma [10]; 75 mg/m^2 every two weeks): eight
- response (Kaposi's sarcoma [10]; [15]): remarkable response with resolution of KS, oozing, foul smell and edema
- toxicities experienced (Kaposi's sarcoma [10]; [15]): skin itching and moderate hair loss
- bone marrow suppression and neutropenia (Kaposi's sarcoma [10]; 75 mg/m^2 every two weeks, three hour infusion, no G-CSF): lack of bone marrow suppression and accompanying neutropenia
- biopsy of the area of skin tumor (Kaposi's sarcoma [10]; after 75 mg/m^2 every two weeks): lack of KS pathologically
- remission after the last combination chemotherapy treatment (Kaposi's sarcoma [10]; paclitaxel alone and in combination with liposomally encapsulated doxorubicin for five months): eight
- Cycles to response, range (AIDS-KS [11]): 3-9 cycles
- Median cycles to response (AIDS-KS [11]): 3 cycles
- Complete response (count) (AIDS-KS [11]; 19 evaluable): 1
- Complete response (percent) (AIDS-KS [11]; 19 evaluable): 5%
- Minimal response/stable disease (count) (AIDS-KS [11]; 19 evaluable): 6
- Minimal response/stable disease (percent) (AIDS-KS [11]; 19 evaluable): 32%
- Partial response (count) (AIDS-KS [11]; 19 evaluable): 12
- Partial response (percent) (AIDS-KS [11]; 19 evaluable): 63%
- Progression (count) (AIDS-KS [11]; 19 evaluable): 0
- Anemia, Grade 2 (count) (AIDS-KS [11]; n = 20): 6
- Anemia, Grade 2 (percent) (AIDS-KS [11]; n = 20): 30%
- Anemia, Grade 3 (count) (AIDS-KS [11]; n = 20): 0
- Anemia, Grade 4 (count) (AIDS-KS [11]; n = 20): 0
- Diarrhea, Grade 3 (AIDS-KS [11]; n = 20): 0
- Diarrhea, Grade 4 (AIDS-KS [11]; n = 20): 0
- Fevers, Grade 3 (AIDS-KS [11]; n = 20): 1
- Fevers, Grade 4 (AIDS-KS [11]; n = 20): 0
- Myalgia, Grade 3 (AIDS-KS [11]; n = 20): 0
- Nausea/Vomiting, Grade 1/2 (AIDS-KS [11]; n = 20): 8
- Neuropathy, Grade 3 (AIDS-KS [11]; n = 20): 0
- Neuropathy, Grade 4 (AIDS-KS [11]; n = 20): 0
- Neutropenia, Grade 2 (count) (AIDS-KS [11]; n = 20): 4
- Neutropenia, Grade 2 (percent) (AIDS-KS [11]; n = 20): 20%
- Neutropenia, Grade 3 (count) (AIDS-KS [11]; n = 20): 2
- Neutropenia, Grade 3 (percent) (AIDS-KS [11]; n = 20): 10%
- Neutropenia, Grade 4 (count) (AIDS-KS [11]; n = 20): 3
- Neutropenia, Grade 4 (percent) (AIDS-KS [11]; n = 20): 15%
- Rash ± Pruritus, Grade 1/2 (AIDS-KS [11]; n = 20): 9
- Rash ± Pruritus, Grade 3 (AIDS-KS [11]; n = 20): 0
- Thrombocytopenia, Grade 2 (count) (AIDS-KS [11]; n = 20): 0
- Thrombocytopenia, Grade 3 (count) (AIDS-KS [11]; n = 20): 0
- Thrombocytopenia, Grade 4 (count) (AIDS-KS [11]; n = 20): 0
- Any G-CSF use (fraction) (bone marrow suppression [12]; n = 43): 30/43
- Never required G-CSF (fraction) (bone marrow suppression [12]; [16]): 13/27
- Required G-CSF after start of paclitaxel therapy (fraction) (bone marrow suppression [12]; [16]): 14/27
- bone marrow suppression (including neutropenia) (bone marrow suppression [12]; patients who did not require G-CSF): not observed
- effectiveness in KS versus other tumors (Kaposi's sarcoma [13]; 100 mg/m^2 every 2 weeks): more effective therapeutically to KS compared to any other tumor studied thus far in the clinic
- tolerability (Kaposi's sarcoma [13]; 100 mg/m^2 every 2 weeks): extremely well tolerated
- median duration of response (Kaposi's sarcoma [13]; 35-100 mg/m^2 every 10-16 days): greater than 20 weeks
- median time to achieve partial response (Kaposi's sarcoma [13]; 35-100 mg/m^2 every 10-16 days): 6-10 weeks
- median time to achieve partial response (cycles) (Kaposi's sarcoma [13]; 35-100 mg/m^2 every 10-16 days): 3-5 cycles
- side effects (Kaposi's sarcoma [13]; aside from mild to moderate hair loss and occasional other mild toxicities): the lack of side effects is extraordinary
- duration of response as reflected by the median number of cycles tolerated, versus all previously studied drugs (Kaposi's sarcoma [13]; compared to all previously studied drugs and combinations): two fold longer
- duration of response, range (Kaposi's sarcoma [13]; up to): up to 60 weeks
- tumor growth (KS Y-1 cells): markedly inhibited

Compound: bleomycin
- pneumonitis (Kaposi's sarcoma [10]; combination chemotherapy of bleomycin, vincristine and adriamycin): pneumonitis with bilateral diffuse infiltration
